# Test results reported in patent US20060025390A1, “Treatment of hormone allergy and related symptoms and disorders” (priority 2004, published 2006).
# Assays:
# Parameters in all cases: species or system human
# [1] = tested on: serum IgM anti-17-α-hydroxyprogesterone antibodies; test: ELISA binding of IgM 17-α-hydroxyprogesterone antibodies to different hormones in solid phase; settings: for IgM binding (optical density): hormone in solid phase, 405 nm; for IgM % reaction: relative to 17-α-hydroxyprogesterone = 100
# Protocol: (§1) The ELISA inhibition method was used to determine specificity and cross-reactivity between different hormones and to ensure the degree of human IgG, IgM and IgE estrogen or progesterone binding to estrogen or progesterone in solid phase. […] 100 μl of sera from three different patients with high IgG, IgM or IgE antibodies against 17-α-hydroxyprogesterone was added to all wells. After shaking and incubation for 1 hr at room temperature, addition of enzyme labeled anti-human IgG, IgM or IgE, repeat of incubation, washing, and addition of substrate, color development was measured at 405 nm. Results were calculated as percentage of anti-17-α-hydroxyprogesterone binding to 17-α-hydroxyprogesterone and other hormones. Also, anti-estrogen binding to estrogen and other hormones in solid phase by progesterone in liquid phase was performed and calculated in a similar manner.
# (§2) Human sera containing 17-α-hydroxyprogesterone IgG-, IgM- and IgE-binding antibodies were reacted against progesterone, estrogen, hydrocortisone and cholesterol. In comparison to 100% binding of anti-17-α-hydroxyprogesterone-binding to 17-α-hydroxyprogesterone, the IgG anti-17-α-hydroxyprogesterone-binding to progesterone, estrogen, hydrocortisone and cholesterol was 69-77%, 25-30%, 39-53%, and less than 10% respectively (Table 4). The % binding of serum IgM and IgE anti-17-α-hydroxyprogesterone to 17-1-hydroxyprogesterone, progesterone, estrogen, hydrocortisone and cholesterol was similar to the binding of IgG. This binding of anti-17-α-hydroxyprogesterone to progesterone was the highest, followed by hydrocortisone, then estrogen, to almost no binding with cholesterol. Similar to this, human sera with IgG, IgM and IgE binding antibodies against estrogen were reacted with progesterone, 17-α-hydroxyprogesterone, hydrocortisone and cholesterol, in the presence of estrogen.
# [2] = tested on: serum IgG anti-17-α-hydroxyprogesterone antibodies; test: ELISA binding of IgG 17-α-hydroxyprogesterone antibodies to different hormones in solid phase; settings: for IgG binding (optical density): hormone in solid phase, 405 nm; for IgG % reaction: relative to 17-α-hydroxyprogesterone = 100
# Protocol: as §1, §2
# [3] = tested on: serum IgE anti-estrogen antibodies; test: ELISA binding of IgE estrogen antibodies to different hormones in solid phase; settings: for IgE binding (optical density): hormone in solid phase, 405 nm; for IgE % reaction: relative to estrogen = 100
# Protocol: as §1, §2
# [4] = tested on: serum IgG anti-estrogen antibodies; test: ELISA binding of IgG estrogen antibodies to different hormones in solid phase; settings: for IgG binding (optical density): hormone in solid phase, 405 nm; for IgG % reaction: relative to estrogen = 100
# Protocol: as §1, §2
# [5] = tested on: serum IgM anti-estrogen antibodies; test: ELISA binding of IgM estrogen antibodies to different hormones in solid phase; settings: for IgM binding (optical density): hormone in solid phase, 405 nm; for IgM % reaction: relative to estrogen = 100
# Protocol: as §1, §2
structure (smiles),measurement,setting,value
"CC(=O)[C@H]1CC[C@H]2[C@@H]3CCC4=CC(=O)CC[C@]4(C)[C@H]3CC[C@]12C [Progesterone, progesterone]",IgM binding (optical density),[1]; sample 1,0.8
same,IgM % reaction,[1]; sample 1,−61%
same,IgM binding (optical density),[1]; sample 2,0.79
same,IgM % reaction,[1]; sample 2,−77%
same,IgM binding (optical density),[1]; sample 3,0.72
same,IgM % reaction,[1]; sample 3,−78%
same,IgG anti-17-α-hydroxyprogesterone binding,"[2]; in comparison to 100% binding to 17-α-hydroxyprogesterone, over three sera",69-77%
same,IgG binding (optical density),[2]; sample 1,1.1
same,IgG % reaction,[2]; sample 1,−69%
same,IgG binding (optical density),[2]; sample 2,0.73
same,IgG % reaction,[2]; sample 2,−77%
same,IgG binding (optical density),[2]; sample 3,0.49
same,IgG % reaction,[2]; sample 3,−72%
same,IgE binding (optical density),[3]; sample 1,0.21
same,IgE % reaction,[3]; sample 1,−26%
same,IgE binding (optical density),[3]; sample 2,0.53
same,IgE % reaction,[3]; sample 2,−35%
same,IgE binding (optical density),[3]; sample 3,0.62
same,IgE % reaction,[3]; sample 3,−39%
same,IgG binding (optical density),[4]; sample 1,0.35
same,IgG % reaction,[4]; sample 1,−29%
same,IgG binding (optical density),[4]; sample 2,0.48
same,IgG % reaction,[4]; sample 2,−27%
same,IgG binding (optical density),[4]; sample 3,0.32
same,IgG % reaction,[4]; sample 3,−35%
same,IgM binding (optical density),[5]; sample 1,0.26
same,IgM % reaction,[5]; sample 1,−29%
same,IgM binding (optical density),[5]; sample 2,0.65
same,IgM % reaction,[5]; sample 2,−31%
same,IgM binding (optical density),[5]; sample 3,0.44
same,IgM % reaction,[5]; sample 3,−34%
